From patent publication US7872036B2, “3-triazolylphenyl sulfide derivative and insecticide, miticide and nematicide containing it as an active ingredient” (Kumiai Chemical Industry Co., Ltd., priority 2004, dated 2011)

Assays:
two-spotted spider mites [1] = test: Miticidal test on two-spotted spider mites (by dipping); format: in vivo, Tetranychus urticae; set-up: scale not given here; settings: dipping of soybean seedlings, active ingredient 500 ppm, 25° C., 13 days
Protocol: (§1) Wettable powders were prepared in accordance with Formulation Example 2 and diluted with water to an active ingredient concentration of 500 ppm. Soybean seedlings which had been inoculated with imago two-spotted spider mites were dipped in the resulting solutions and dried in air. The treated seedlings were placed in a thermostatic chamber at 25° C. for 13 days, and the mite survivors were counted for calculation of the miticidal value by using Equation 2. The test was carried out by one series system.

two-spotted spider mites [2] = test: Miticidal test on two-spotted spider mites (by soil drenching); format: in vivo, Tetranychus urticae; set-up: scale not given here; settings: active ingredient 100 ppm, 5 ml per 100 g soil, 25° C., 13 days
Protocol: as §1, with “100” for “500”, “100 g of the soil in cups with soybean” for “Soybean”, “drenched with 5 ml of” for “dipped in”, “solutions.” for “solutions and dried in air.”, “[…]” for “thermostatic”, “2.” for “2. The test was carried out by one series system.”

brown planthoppers = test: Insecticidal test on brown planthoppers; format: in vivo, Nilaparvata lugens; settings: active ingredient 500 ppm, germinating rice immersed, 4th-instar larvae, 25° C., 6 days
Protocol: Wettable powders were prepared in accordance with Formulation Example 2 and diluted with water to an active ingredient concentration of 500 ppm. Germinating rice was immersed in the resulting solutions and put in a plastic cup with a capacity of 60 ml. Ten 4th-instar larvae of brown planthoppers were released to the cup, and the cup was covered and placed in a thermostatic chamber at 25° C. for 6 days, and the survivors were counted for calculation of the insecticidal degree by using Equation 1. The test was carried out by one series system.

[3] = system: southern root-knot nematodes; test: Nemastatic test on southern root-knot nematodes; format: in vivo, Meloidogyne sp.; settings: diluted solution 20 ppm mixed 1:1 with suspension of second stage larvae, 25° C., 5 days
Protocol: Compounds of the present invention (5 parts) and Tween 20 (tradename for polyoxyethylene sorbitan monolaurate) (1 part) as a spreader were dissolved n N,N-dimethylformamide (94 parts) to prepare 5% emulsifiable concentrates of the compounds of the present invention. Distilled water was added to the emulsifiable concentrates to prepare diluted solutions having a concentration of the compounds of the present invention of 20 ppm. 0.5 ml of the diluted solutions and 0.5 ml of water suspensions containing 100 second stage larvae of southern root-knot nematodes were mixed, and the mixture were placed in a thermostatic chamber at 25° C. for 5 days, and the survivors were counted for calculation of the nemastatic degree by using Equation 3. The test was carried out by two series system.

Compound | Miticidal value (two-spotted spider mites [1]) | Miticidal value (two-spotted spider mites [2]) | Insecticidal degree (%) (brown planthoppers) | Nemastatic degree (%) [3] [%]
CNc1nc(SC(F)(F)C(F)(F)F)nn1-c1cc([S+]([O-])CC(F)(F)F)c(C)cc1F (stereo not shown) [Compound 102] | 100 | 100 | 100 | 98
Cc1ccc(-n2nc(C(F)(F)F)nc2N)cc1[S+]([O-])CC(F)(F)F (stereo not shown) [Compound 125] | 100 | 99 | 100 | 91
Cc1cc(F)c(-n2nc(C(F)(F)F)nc2N)cc1SCC(F)(F)F [Compound 1, [5-(5-amino-3-trifluoromethyl-1,2,4-triazolyl)-4-fluoro-2-methylphenyl]2,2,2-trifluoroethyl sulfide] | 100 | 99 | 90 | 100
C#CCNc1nc(C(F)(F)F)nn1-c1cc([S+]([O-])CC(F)(F)F)c(C)cc1F (stereo not shown) [Compound 66] | 100 | 100 | 100 | 94
CNc1nc(C(C)(C)C)nn1-c1cc([S+]([O-])CC(F)(F)F)c(C)cc1F (stereo not shown) [Compound 115] | 100 | 100 | 100 | 92
Nc1nc(C(F)(F)F)nn1-c1ccc(Cl)c([S+]([O-])CC(F)(F)F)c1 (stereo not shown) [Compound 127] | 100 | 100 | 100 | 94
Cc1cc(F)c(-n2nc([S+]([O-])C(F)F)nc2N)cc1[S+]([O-])CC(F)(F)F (stereo not shown) [Compound 30] | 100 | 100 | – | 95
Cc1cc(F)c(-n2nc(C#N)nc2N)cc1[S+]([O-])CC(F)(F)F (stereo not shown) [Compound 36] | 100 | 100 | – | 100
Cc1cc(F)c(-n2nc(C(C)(C)C)nc2N)cc1SCC(F)(F)F [Compound 144] | 100 | 100 | 90 | 97
Cc1cc(F)c(-n2nc(C(F)(F)F)nc2N(C)C(=O)C(F)(F)F)cc1[S+]([O-])CC(F)(F)F (racemic) [Compound 212] | 100 | 100 | 100 | 100
Cc1cc(F)c(-n2nc(C(F)(F)F)nc2NN)cc1SCC(F)(F)F [Compound 162] | 100 | 95 | 100 | 100
Cc1cc(F)c(-n2nc(C(F)(F)F)nc2N)cc1[S+]([O-])CC(F)(F)F (stereo not shown) [Compound 2, [5-(5-amino-3-trifluoromethyl-1,2,4-triazolyl)-4-fluoro-2-methylphenyl]2,2,2-trifluoroethyl sulfoxide] | 100 | 100 | 100 | 100
Cc1cc(F)c(-n2nc([S+]([O-])CC(F)(F)F)nc2N)cc1[S+]([O-])CC(F)(F)F (stereo not shown) [Compound 133] | 100 | 100 | 100 | 98
Cc1cc(F)c(-n2nc(C(F)(F)F)nc2N(C)N)cc1[S+]([O-])CC(F)(F)F (stereo not shown) [Compound 171] | 100 | 100 | 100 | 100
Cc1cc(F)c(-n2nc(C(F)(F)F)nc2NC(=O)C(F)(F)F)cc1[S+]([O-])CC(F)(F)F (stereo not shown) [Compound 6, [5-(5-trifluoroacetylamino-3-trifluoromethyl-1,2,4-triazolyl)-4-fluoro-2-methylphenyl]2,2,2-trifluoroethyl sulfoxide] | 100 | 100 | 100 | 100
CNc1nc(C(C)(C)C)nn1-c1cc(SCC(F)(F)F)c(C)cc1F [Compound 114] | 100 | 100 | 100 | 100
Cc1cc(F)c(-n2nc(SCC(F)(F)F)nc2N)cc1[S+]([O-])CC(F)(F)F (stereo not shown) [Compound 131] | 100 | 100 | 90 | 93
Cc1cc(F)c(-n2nc(C#N)nc2N)cc1SCC(F)(F)F [Compound 35] | 100 | 93 | – | 100
CNc1nc(C(F)(F)F)nn1-c1ccc(C)c([S+]([O-])CC(F)(F)F)c1 (stereo not shown) [Compound 38] | 100 | 100 | 100 | 100
CNc1nc(SCC(F)(F)F)nn1-c1cc([S+]([O-])CC(F)(F)F)c(C)cc1F (stereo not shown) [Compound 161] | 100 | 100 | 100 | 98
Cc1cc(F)c(-n2nc(C(F)(F)F)nc2N(C)C)cc1SCC(F)(F)F [Compound 43] | 100 | 100 | 100 | 93
CCc1nc(N)n(-c2cc([S+]([O-])CC(F)(F)F)c(C)cc2F)n1 (stereo not shown) [Compound 50] | 100 | 100 | 99 | 98
